Experiments:
Caspase-1 (Mus musculus) = target: T1, Caspase-1 (Mus musculus) (UniProt P29452); assay: Inhibitory activity against murine caspase-1
T1 sequence (whole entry): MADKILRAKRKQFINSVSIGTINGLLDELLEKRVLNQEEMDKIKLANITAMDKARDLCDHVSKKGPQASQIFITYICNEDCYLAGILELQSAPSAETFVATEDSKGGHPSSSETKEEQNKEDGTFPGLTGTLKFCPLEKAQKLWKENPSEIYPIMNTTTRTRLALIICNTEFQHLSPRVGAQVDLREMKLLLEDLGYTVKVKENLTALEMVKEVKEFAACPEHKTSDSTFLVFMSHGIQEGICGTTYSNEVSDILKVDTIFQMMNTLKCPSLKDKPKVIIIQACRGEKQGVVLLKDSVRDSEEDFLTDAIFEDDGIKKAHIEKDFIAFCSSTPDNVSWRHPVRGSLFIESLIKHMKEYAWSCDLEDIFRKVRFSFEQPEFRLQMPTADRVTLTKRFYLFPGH

Jurkat = assay: Cellular assay in a Fas-induced model of apoptosis in Jurkat cells; type: functional, cell-based; settings: Homo sapiens
Caspase-3 = target: T2, Caspase-3 (Homo sapiens, UniProt P42574); assay: Binding affinity against caspase-3 (Csp-3)
T2 sequence (P42574 whole entry): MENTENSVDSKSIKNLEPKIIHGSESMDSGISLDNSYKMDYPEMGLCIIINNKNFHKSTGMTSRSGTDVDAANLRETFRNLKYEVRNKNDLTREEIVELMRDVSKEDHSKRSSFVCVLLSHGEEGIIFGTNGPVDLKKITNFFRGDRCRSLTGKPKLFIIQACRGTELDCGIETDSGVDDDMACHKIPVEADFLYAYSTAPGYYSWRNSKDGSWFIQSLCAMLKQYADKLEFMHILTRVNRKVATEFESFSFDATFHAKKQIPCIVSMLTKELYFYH

Caspase-3 (Homo sapiens) = target: T3, Caspase-3 (Homo sapiens) (UniProt P42574); assay: Inhibitory activity against caspase-3 (Csp-3)
T3 sequence (whole entry): T2 sequence (P42574 whole entry)

Homo sapiens = species on record: Homo sapiens; assay: Cellular assay in an inflammation model measuring IL1-beta secretion from isolated human monocytes induced with Staph A; type: functional
Caspase-1 = target: T4, Caspase-1 (Mus musculus, UniProt P29452); assay: Binding affinity against Murine caspase-1 (mCsp-1)
T4 sequence (P29452 whole entry): T1 sequence (whole entry)

[1] = (§1) Cellular assay in a model of neuronal apoptosis involving cortical neurons exposed to concanavalin A; type: functional
Caspase-6 (Homo sapiens) [2] = target: T5, Caspase-6 (Homo sapiens) (UniProt P55212); assay: Inhibitory activity against caspase-6 (Csp-6)
T5 sequence (whole entry): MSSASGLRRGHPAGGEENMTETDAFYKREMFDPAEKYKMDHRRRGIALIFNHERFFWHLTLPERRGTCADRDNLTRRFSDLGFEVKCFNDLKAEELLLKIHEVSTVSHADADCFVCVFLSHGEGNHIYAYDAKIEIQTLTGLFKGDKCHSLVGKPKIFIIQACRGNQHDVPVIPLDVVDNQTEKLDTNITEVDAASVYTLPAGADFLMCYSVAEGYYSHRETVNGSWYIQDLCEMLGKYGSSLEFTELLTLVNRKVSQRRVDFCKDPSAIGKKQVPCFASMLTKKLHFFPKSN

Caspase-8 (Homo sapiens) = Caspase-8 (Homo sapiens) (UniProt Q14790); assay: Inhibitory activity against caspase-8 (Csp-8)
Caspase-8 (Homo sapiens), sequence (Q14790 217-374 limits assumed): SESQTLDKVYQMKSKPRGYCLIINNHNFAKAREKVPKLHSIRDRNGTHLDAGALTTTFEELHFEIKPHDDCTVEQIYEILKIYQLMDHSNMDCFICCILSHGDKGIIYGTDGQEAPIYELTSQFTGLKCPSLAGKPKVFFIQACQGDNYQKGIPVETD
Caspase-8 (Homo sapiens), sequence (Q14790 385-479 limits assumed): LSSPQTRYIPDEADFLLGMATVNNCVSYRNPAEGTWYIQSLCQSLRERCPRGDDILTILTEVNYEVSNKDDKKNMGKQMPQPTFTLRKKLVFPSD

[3] = as §1; type: functional; remark: listed apart in the source
Caspase-6 (Homo sapiens) [4] = target: T5, Caspase-6 (Homo sapiens); assay: Inhibitory activity against Caspase-6 (Csp-6); type: functional

| SMILES | k3/Ki (Caspase-1 (Mus musculus)) | IC50 (Jurkat) | Ki (Caspase-3) | k3/Ki (Caspase-3 (Homo sapiens)) | IC50 (Homo sapiens) | Ki (Caspase-1) | IC50 [1] | k3/Ki (Caspase-6 (Homo sapiens) [2]) | k3/Ki (Caspase-8 (Homo sapiens)) | IC50 [3] | k3/Ki (Caspase-6 (Homo sapiens) [4]) |
| --- | --- | --- | --- | --- | --- | --- | --- | --- | --- | --- | --- |
| CC(C)[C@H](NC(=O)COc1cccc2ccccc12)C(=O)N[C@@H](CC(=O)O)C(=O)COc1ccc2ccccc2c1 | 263 M⁻¹ s⁻¹ | > 100 µM | 0.09 µM | 7520 M⁻¹ s⁻¹ | 15.9 µM | 3.17 µM | > 50 µM | – | – | – | – |
| CC(C)[C@H](NC(=O)COc1cccc2ccccc12)C(=O)N[C@@H](CC(=O)O)C(=O)COc1ccc(-c2ccccc2)cc1 | 1550 M⁻¹ s⁻¹ | 87.9 µM | 0.1 µM | 9990 M⁻¹ s⁻¹ | 38.7 µM | 2.68 µM | > 50 µM | 270 M⁻¹ s⁻¹ | 1310 M⁻¹ s⁻¹ | – | – |
| CC(C)[C@H](NC(=O)COc1cccc2ccccc12)C(=O)N[C@@H](CC(=O)O)C(=O)COc1cccc2ccccc12 | 354000 M⁻¹ s⁻¹ | > 100 µM | 0.0071 µM | 1.96e+06 M⁻¹ s⁻¹ | 19 µM | 0.07 µM | 2.65 µM | – | – | – | – |
| CC(C)[C@H](NC(=O)COc1cccc2ccccc12)C(=O)N[C@@H](CC(=O)O)C(=O)COc1ccccc1 | 3630 M⁻¹ s⁻¹ | 14 µM | – | 19200 M⁻¹ s⁻¹ | 11.2 µM | – | – | 2400 M⁻¹ s⁻¹ | 4260 M⁻¹ s⁻¹ | 38 µM | – |
| CC(C)[C@H](NC(=O)COc1cccc2ccccc12)C(=O)N[C@@H](CC(=O)O)C(=O)COc1cc(F)cc(F)c1 | 2170 M⁻¹ s⁻¹ | > 100 µM | – | 9240 M⁻¹ s⁻¹ | 15.9 µM | – | 11.6 µM | 106 M⁻¹ s⁻¹ | 154 M⁻¹ s⁻¹ | – | – |
| CC(C)[C@H](NC(=O)COc1cccc2ccccc12)C(=O)N[C@@H](CC(=O)O)C(=O)COc1c(F)c(F)c(-c2c(F)c(F)c(F)c(F)c2F)c(F)c1F | 6680 M⁻¹ s⁻¹ | 20 µM | – | 52100 M⁻¹ s⁻¹ | 40 µM | – | > 50 µM | 27000 M⁻¹ s⁻¹ | 10400 M⁻¹ s⁻¹ | – | – |
| CC(C)[C@H](NC(=O)COc1cccc2ccccc12)C(=O)N[C@@H](CC(=O)O)C(=O)COc1ccc(F)c(F)c1F | 11900 M⁻¹ s⁻¹ | 35.8 µM | – | 35800 M⁻¹ s⁻¹ | 20.6 µM | – | > 50 µM | 253 M⁻¹ s⁻¹ | 769 M⁻¹ s⁻¹ | – | – |

The next compounds have a lower IC50 (Jurkat) than those just listed; values first:

| k3/Ki (Caspase-1 (Mus musculus)) | IC50 (Jurkat) | Ki (Caspase-3) | k3/Ki (Caspase-3 (Homo sapiens)) | IC50 (Homo sapiens) | Ki (Caspase-1) | IC50 [1] | k3/Ki (Caspase-6 (Homo sapiens) [2]) | k3/Ki (Caspase-8 (Homo sapiens)) | IC50 [3] | k3/Ki (Caspase-6 (Homo sapiens) [4]) | SMILES |
| --- | --- | --- | --- | --- | --- | --- | --- | --- | --- | --- | --- |
| 25300 M⁻¹ s⁻¹ | 3 µM | – | 179000 M⁻¹ s⁻¹ | 15.3 µM | – | 2.75 µM | 87700 M⁻¹ s⁻¹ | 2710 M⁻¹ s⁻¹ | – | – | CC(C)[C@H](NC(=O)COc1cccc2ccccc12)C(=O)N[C@@H](CC(=O)O)C(=O)COc1c(Cl)cccc1Cl |
| 20700 M⁻¹ s⁻¹ | 6.84 µM | – | 114000 M⁻¹ s⁻¹ | 14.9 µM | – | 2.35 µM | 5140 M⁻¹ s⁻¹ | 9080 M⁻¹ s⁻¹ | – | – | CC(C)[C@H](NC(=O)COc1cccc2ccccc12)C(=O)N[C@@H](CC(=O)O)C(=O)COc1c(F)cc(F)cc1F |
| 52100 M⁻¹ s⁻¹ | 10.6 µM | – | 725000 M⁻¹ s⁻¹ | 11.5 µM | – | 2.15 µM | 56900 M⁻¹ s⁻¹ | 17000 M⁻¹ s⁻¹ | – | – | CC(C)[C@H](NC(=O)COc1cccc2ccccc12)C(=O)N[C@@H](CC(=O)O)C(=O)COC(=O)c1c(Cl)cccc1Cl |
| 129000 M⁻¹ s⁻¹ | 0.24 µM | – | 207000 M⁻¹ s⁻¹ | 0.95 µM | – | 3.05 µM | – | 71700 M⁻¹ s⁻¹ | – | 36800 M⁻¹ s⁻¹ | CC(C)[C@H](NC(=O)COc1cccc2ccccc12)C(=O)N[C@@H](CC(=O)O)C(=O)CF |
| 1900 M⁻¹ s⁻¹ | 12.7 µM | – | 9520 M⁻¹ s⁻¹ | 19 µM | – | > 50 µM | 370 M⁻¹ s⁻¹ | 668 M⁻¹ s⁻¹ | – | – | CC(C)[C@H](NC(=O)COc1cccc2ccccc12)C(=O)N[C@@H](CC(=O)O)C(=O)COc1ccc(Oc2ccccc2)cc1 |

Reference: ChEMBL document CHEMBL1136305, “Structure-activity relationships within a series of caspase inhibitors: effect of leaving group modifications” (Bioorg Med Chem Lett, 2003)
